Measurements published in paper PMC12389038 (Pharmaceutics, 2025).
Marks after values point to notes of the source that are not given here.

Tests used:
[1] = test system: Trichinella spiralis encysted muscle larvae; assay: In vivo therapeutic efficacy in the parenteral stage of T. spiralis infection; design: species or system CBi/L and CBi+ mice; settings: for Dead larvae percentage: 15 mg MBZ/kg/day oral days 27, 28, 29 p-i, methylene blue, median (range)
Method: Since CBi/L and CBi+ mice show significant body weight differences, as already stated, adult animals of both sexes were infected orally with an equivalent dose of 2 T. spiralis L1 larvae per g of the host’s body weight. Each animal was weighed before infection, 24–48 h before treatment, and before sacrifice. During the infection course, the general health of each mouse (overall physical condition and behavior) was monitored three times a week.
Six mice per line and sex were randomly assigned to the non-treated control (C) or treated groups (MBZ, NP, or Comp). Seven days after the last dose, mice were sacrificed to quantify encysted muscle larvae in the tongue. The tongue was excised, weighed, and digested overnight at 37 °C in a pepsin–HCl solution. Digestion was interrupted by adding saline, and the larvae were rinsed several times with saline to remove debris. After low-speed centrifugation (250–300 g, 5 min), the supernatant was carefully removed, and the pellet containing larvae was resuspended in 2 mL of saline. Larvae were counted under an optical microscope at 40× magnification using an acrylic plate. Each formulation’s anthelmintic efficacy was assessed by its effect on the larval muscle load (relative larval load: rLL, number of L1 larvae per g fresh tissue). Also, the effect of the formulations on the encysted L1 larvae viability (dead larvae percentage: proportion of dead muscle larvae/total muscle larvae recovered from each animal) was analyzed using the methylene blue supravital staining technique, as already described.

[2] = background statement, no reference given; cited from earlier work
[3] = test system: Trichinella spiralis encysted muscle larvae; assay: Increasing doses of pure MBZ, therapeutic efficacy in T. spiralis-infected CBi+ mice; type: in vivo; settings: CBi+ males and females, 30 or 45 mg of MBZ/kg, vs control mice or 15 mg of MBZ/kg
Method: As in the experiments described in Section 2.10.2, the pure drug was administered in the parenteral stage of infection on days 27, 28, and 29 p-i. Seven days after the last dose, mice were sacrificed, and the number and viability of the tongue’s encysted muscle larvae were determined to evaluate anthelmintic efficacy.

[4] = Particle size determination (SEM image analysis / Nano Particle Analyzer); type: physicochemical
Method: The particle size of the NP and inclusion complexes was determined by imaging using scanning electron microscopy (Leitz AMR 1600 T [Amray, Bedford, MA, USA]), with an acceleration potential of 20 kV. Samples were sputter-coated with a gold layer to make them conductive. Then, to determine the particle size, scanning electron microscopy images were analyzed using the ImageJ 1x software, a Java-based graphic design program dedicated to image analysis, to estimate size. The particle size of nano-formulations was determined by using a Nano Particle Analyzer Horiba SZ-100 (Kyoto, Japan). Samples were diluted (1:30) in filtered distilled water before measuring.

T. spiralis female worms = assay: In vitro parasitic assay on T. spiralis female worms; design: species or system Trichinella spiralis
Method: CBi mice were orally infected with 10 L1 T. spiralis larvae per gram of body weight and sacrificed on day 6 post-infection (intestinal phase) as described previously. After euthanasia, the small intestine was excised, segmented into equal lengths, and placed in Petri dishes containing 8–12 mL of incubation medium (0.85% NaCl with 250 μg/mL gentamicin). Each segment was opened longitudinally, gently agitated in the medium, and incubated for 4 h at 37 °C in 5% CO2. Following incubation, intestinal pieces were rinsed with medium and discarded. The medium containing released parasites was collected, centrifuged at a low speed, and the pellet was resuspended in 2–3 mL of RPMI 1640 supplemented with 250 μg/mL of gentamicin and 10% fetal bovine serum. Female worms were then isolated under sterile conditions for further assays.
They were stirred at room temperature for 24 h and then filtered through sterile ethyl cellulose 0.2 μm pore filters (Minisart®, Sartorius Stedim Biotech, Göttingen, Germany).
The entire procedure was conducted under sterile conditions as described by Priotti et al.. Female T. spiralis worms obtained as above were incubated overnight in RPMI 1640 supplemented with 250 μg/mL of gentamicin and 10% fetal bovine serum at 37 °C in 5% CO2. […] The MBZ solution served as the positive control, and the culture medium with the solvent served as the negative control. Worms were incubated at 37 °C in a humidified 5% CO2 atmosphere for 30 h and observed under an inverted microscope at 2, 4, 7, 24, and 30 h. Viability was assessed at each time point by motility and morphology to classify worms as live or dead. The number and motility of newborn larvae were also recorded. Median worm survival was analyzed using survival curves. Experiments were performed in duplicate, with data corrected against the negative control.
Survival curves were calculated using Kaplan and Meier’s product limit method (GraphPad Prism® 9.5; GraphPad Software, Inc., San Diego, CA, USA). The significance of the difference among survival curves was determined with the log-rank test.

in vivo = assay: in vivo; design: species or system CBi/L and CBi+ mice; settings: mouse, po, 15 mg/kg
Method: Separately, 2.6 g of gelatin powder was dissolved in 10 mL of hot water (60 °C), and 100 μL of this solution was added to each tube before solidification. The mixture was then sonicated in a 60 °C water bath, and 40 mg of powdered commercial chow was added to enhance palatability and ensure complete ingestion. This procedure was developed in our lab and was published in Codina et al..
Following the procedures described by Codina et al., three to four animals per formulation were anesthetized after the drug administration with an intraperitoneal injection of ketamine/xylazine 10:1, 5 min before blood collection. Whole blood (approximately 1.5 mL) samples were taken by cardiac puncture at 0.3, 0.6, 1, 1.2, 2, 2.5, 3, 4, 5, 7, and 24 h post-treatment. Blood was collected into heparinized vials and centrifuged at 9000 rpm for 15 min to obtain plasma, which was transferred to a plastic tube and stored at −20 °C until HPLC analysis.
Briefly, each plasma sample (200 μL) was deproteinized by adding methanol (1 mL), frozen for 30 min at −20 °C, and centrifuged at 15,000 rpm at 4 °C for 12 min. Then, the supernatant was evaporated under vacuum, and the dried samples were stored frozen until analyzed. Samples were reconstituted in 100 μL of the mobile phase and filtered through 0.2 μm polyvinylidene fluoride (PVDF) syringe filters (Agilent, Santa Clara, CA, USA). The mobile phase consisted of 0.05 M of monobasic potassium phosphate buffer and methanol (40:60, v/v). […] Briefly, each plasma sample (200 μL) was treated to eliminate proteins by adding methanol (1 mL), frozen for 30 min at −20 °C, and centrifuged at 15,000 rpm at 4 °C for 12 min. Then, the supernatant was evaporated under a vacuum, and the dried samples were frozen until analyzed. Samples of 25 μL were injected, and the analytes were eluted (flow 1.2 mL/min) from a column Zorbax Eclipse C-18 (150 × 4.6 mm; 5 μm). The absorbance was measured at a wavelength of 247 nm. The analyte retention time was 3.8 ± 0.2 min.
According to regulatory guidelines, the Lower Limit of Quantification (LLOQ) is defined as the lowest concentration of an analyte in a biological matrix that can be quantitatively determined with acceptable precision and accuracy. […] The LLOQ was determined based on the standard deviation of the response at the lowest concentration point, measured in triplicate, and was evaluated for both precision (% CV) and accuracy criteria. […] Consequently, only data up to 7 h were considered for pharmacokinetic analysis.
AUCs were calculated using the trapezoidal rule. Pharmacokinetic parameters were expressed as mean ± SEM. In this section, we report data as mean ± SEM to provide a measure of the central tendency along with the precision of the estimated mean. The standard error of the mean (SEM) is particularly useful for highlighting the reliability of the sample mean as an estimate of the true population mean, which is relevant when evaluating pharmacokinetic (PK) parameters under controlled conditions.

SMILES: COC(=O)Nc1nc2ccc(C(=O)c3ccccc3)cc2[nH]1 [MBZ, Mebendazole]
- Dead larvae percentage ([1]; CBi+ female): 5 (5–11) ^a %
- Dead larvae percentage ([1]; CBi+ male): 11 (7–75) ^a %
- Dead larvae percentage ([1]; CBi/L female): 15 (6–25) ^b %
- Dead larvae percentage ([1]; CBi/L male): 27 (7–75) ^b %
- Number of muscle larvae recovered compared to control animals ([1]; pure MBZ 15 mg/kg on days 27, 28, and 29 p-i): did not reduce the number of muscle larvae recovered
- Oral bioavailability [2]: approximately 20%
- Decrease in muscle rLL [3]: 40%
- Particle Size (mean diameter) [4]: 10.4 ± 6.9 µm
- Survival Proportion After 30 h (T. spiralis female worms; T. spiralis females, 30 h incubation in RPMI 1640): 79.3%
- Median Survival (T. spiralis female worms; T. spiralis females, 30 h incubation in RPMI 1640, Kaplan–Meier): Undefined
- Effect on mobility of T. spiralis newborn larvae (T. spiralis female worms; larvae released by females exposed to the antiparasitic solutions, 30 h): Neither MBZ nor the formulations affected the mobility
- AUC(0-t) (in vivo; female, CBi+): 0.6 ± 0.08 µg·h/mL
- Cmax (in vivo; female, CBi+): 0.2 ± 0.02 µg/mL
- Tmax (in vivo; female, CBi+): 39.6 min
- AUC(0-t) (in vivo; female, CBi/L): 3.9 ± 0.63 µg·h/mL
- Cmax (in vivo; female, CBi/L): 1.3 ± 0.26 µg/mL
- Tmax (in vivo; female, CBi/L): 39.6 min
- AUC(0-t) (in vivo; male, CBi+): 0.4 ± 0.2 µg·h/mL
- Cmax (in vivo; male, CBi+): 0.3 ± 0.11 µg/mL
- Tmax (in vivo; male, CBi+): 39.6 min
- AUC(0-t) (in vivo; male, CBi/L): 2.7 ± 0.82 µg·h/mL
- Cmax (in vivo; male, CBi/L): 1.3 ± 0.31 µg/mL
- Tmax (in vivo; male, CBi/L): 39.6 min
